Results on two compounds are retold here after patent publication US9029414B2, “Triterpenoid compounds and methods of use thereof” (Biotechnology Research Corporation, priority 2008, dated 2015).

What all share (type): cell-based
One experiment concerns the target EP2 receptor (Homo sapiens, UniProt P43116). The experiment in a line: Cellular receptor functional assay (cAMP), EP2. More on the design: expressed in transfected cells. As to conditions: for Agonist effect, cAMP measurement / Antagonist effect, cAMP measurement: EP2 receptor; for Antagonist effect, cAMP measurement: in presence of PGE2. Here is the method: (§1) FIG. 13. […] A: Cellular functional assay for EP2; B: Cellular functional assay for […].
(§2) To determine whether the inhibitory effect of DA001 on the ligand binding to EP receptors results from agonist or antagonist activity, DA001 was evaluated at a single concentration (10 μM) on cellular-specific receptor functional assays. Upon ligand binding, the EP receptors are activated which leads to an increase in intracellular cyclic AMP.
(§3) DA001 was evaluated at 6 concentrations in cellular assays assessing receptor function. Upon ligand binding, the EP2 and EP4 receptor is activated which leads to an increase in intracellular cyclic AMP.
(§4) DA021 inhibits PGE2 ligand binding to EP1, EP2 and EP4 receptors. To determine whether the inhibitory effect is due to agonist or antagonist activity, DA021 was evaluated and compared at 1 concentration (30 uM) in cellular assays assessing receptor function. Upon ligand binding, the EP receptors are activated which leads to an increase in intracellular cyclic AMP.

The test system of experiment [1] is MOG-induced IL-6 in primary splenocytes. The experiment in a line: IL-6 Quantikine ELISA in primary splenocytes of EAE mice. As to conditions: exogenous compound 30 μM; for amount of IL-6 in response to exogenous compound: splenocytes of compound-treated EAE mice (100 mg/kg); for reduction in the amount of MOG-induced IL-6: splenocytes of vehicle-treated EAE mice, MOG 25 μg/mL, 48 hrs. Here is the method: On day 21, EAE mice were sacrificed by cervical dislocation and spleens were removed aseptically. The removed spleens were then cut with sterilized scissors and strained through […] mesh (BD Bioscience) with a plunger of 5 mL syringe (BD Bioscience) in 9 mL of RPMI 1640 (Invitrogen) with 100 U/mL penicillin and 100 μg/mL streptomycin (Sigma). The cell mixture was then added to 9 mL of Lympholyte (Cedarlane Laboratories) for gradient separation of splenocytes from red bloods cells by centrifugation at 1500 g for 20 min. After the centrifugation, the lympholyte layer containing splenocytes were carefully removed and washed with 10 mL of RPMI 1640 at 800 g for 10 min for three times. The isolated splenocytes were seeded onto different plate format and cultured with RPMI 1640 medium (Invitrogen) supplement with 10% heat inactivated fetal bovine serum (Invitrogen) and 100 U/mL penicillin and 100 μg/mL streptomycin at 37° C. CO2 incubator.
Splenocytes from EAE mice were cultured at the density of 1×10^6 cells in 12-well plates (Falcon) in the absence or presence of the MOG peptide (25 μg/mL) (Hooke Laboratories), DA001 and DA021 (30 μM) with RPMI 1640 medium (Invitrogen) supplement with 10% heat inactivated fetal bovine serum (Invitrogen) and 100 U/mL penicillin and 100 μg/mL streptomycin (Sigma) for 48 h. After 48 h, the supernatants were collected by pelleting the cells at 300 g for 10 min at 4° C. 50 μL of the each sample was added to the microtiter plate provided by the manufacturer of the Quantikine ELISA assay kit (R and D systems). Additional 50 μL of assay diluents buffer was added and incubated at room temperature for 2 h. After the incubation, the supernatants were discarded and the cells were washed with wash buffer. […] Subsequently, 100 μL of stop solution was added to each well and the plate was read in 450 nm wavelength on a microplate reader (Dynex Revelation 2.2).
Cells were cultured in RPMI 1640 medium supplement with 10% heat inactivated fetal bovine serum and penicillin/streptomycin, in the absence or presence of MOG (25 μg/mL, Ex) with or without DA001 or DA021 (30 μM, Ex). […] The amount of IL-6 was calculated based on the standard curve established during the assay. […]
Cells were cultured in RPMI 1640 medium supplement with 10% heat inactivated fetal bovine serum and penicillin/streptomycin, in the absence or presence of MOG (25 μg/mL, Ex) with or without DA001 (30 μM, Ex). […] The amount of IL-6 was calculated based on the standard curve established during the assay. […]
Cells were cultured in RPMI 1640 medium supplement with 10% heat inactivated fetal bovine serum and penicillin/streptomycin, in the absence or presence of MOG (25 μg/mL, Ex) with or without DA021 (30 μM, Ex). […] The amount of IL-6 was calculated based on the standard curve established during the assay. […]

The target in the next experiment is EP4 receptor (Homo sapiens, UniProt P35408). Put plainly: Cellular receptor functional assay (cAMP), EP4. As to conditions: for Antagonist effect, cAMP measurement: in presence of PGE2. More on the design: expressed in transfected cells; host or cells: CHO cells. On the procedure: as §1, §2
Chain of EP4 receptor (P35408 whole entry): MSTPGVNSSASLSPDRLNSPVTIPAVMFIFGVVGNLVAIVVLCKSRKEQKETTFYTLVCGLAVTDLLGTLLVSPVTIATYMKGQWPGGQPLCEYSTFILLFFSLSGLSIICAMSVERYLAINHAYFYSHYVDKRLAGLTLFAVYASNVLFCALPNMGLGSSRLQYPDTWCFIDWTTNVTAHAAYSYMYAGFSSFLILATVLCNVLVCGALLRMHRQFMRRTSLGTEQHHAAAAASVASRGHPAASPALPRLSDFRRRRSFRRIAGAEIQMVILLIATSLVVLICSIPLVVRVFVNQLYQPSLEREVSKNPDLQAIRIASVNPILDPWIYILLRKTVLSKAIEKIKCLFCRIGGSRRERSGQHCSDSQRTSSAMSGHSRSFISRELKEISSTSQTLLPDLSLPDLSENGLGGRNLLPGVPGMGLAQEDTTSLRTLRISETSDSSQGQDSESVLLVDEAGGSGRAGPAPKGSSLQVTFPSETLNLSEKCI
DA001 (10 μM) was subjected to ligand binding assay with the human EP1 or EP4 receptor over-expressing CHO cells. Results are expressed as a percent of control specific agonist response [100-(measured specific response/control specific agonist response)×100] obtained in the presence of DA001.
as §3, §4

The mark [2] stands for this setting: inhibition of PGE2-induced cAMP increase, 6 concentrations, read-out: IC50, antagonist effect.

Chain of EP2 receptor (P43116 whole entry): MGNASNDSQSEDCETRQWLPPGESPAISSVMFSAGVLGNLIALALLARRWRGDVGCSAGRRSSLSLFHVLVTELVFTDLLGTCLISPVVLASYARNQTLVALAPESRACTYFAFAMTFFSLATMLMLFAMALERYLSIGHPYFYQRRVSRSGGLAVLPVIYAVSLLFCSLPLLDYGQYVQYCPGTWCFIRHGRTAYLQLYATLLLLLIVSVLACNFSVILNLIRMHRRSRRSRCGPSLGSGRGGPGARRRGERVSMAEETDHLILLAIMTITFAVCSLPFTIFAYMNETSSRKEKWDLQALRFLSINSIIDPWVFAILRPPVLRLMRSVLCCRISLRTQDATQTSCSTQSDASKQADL

Consider `C=C(C)[C@@H]1CC[C@]2(/C=N/O)CC[C@]3(C)C(CCC4[C@@]5(C)CCC(=O)[C@@](C)(CO)[C@@H]5CC[C@]43C)C12` (stereo partly shown) [DA021], for which, on EP2 receptor (30 uM), the “Agonist effect, cAMP measurement” value is on record as −3 and the “Antagonist effect, cAMP measurement” value came to 4. Besides, in experiment [1], the “amount of IL-6 in response to exogenous compound” value is listed as “markedly decreased” and the “reduction in the amount of MOG-induced IL-6” value is 79%. Moreover, the “Antagonist effect, cAMP measurement” value at EP4 receptor (EP4 receptor, 30 uM) is reported as 18.
On to `C=C(C)[C@@H]1CC[C@]2(C(=O)O)CC[C@]3(C)C(CC[C@@H]4[C@@]5(C)CC[C@H](O[C@@H]6OC[C@H](O)[C@H](O)[C@H]6O[C@@H]6O[C@@H](C)[C@H](O)[C@@H](O)[C@H]6O)[C@@](C)(CO)[C@@H]5CC[C@]43C)[C@@H]12` (stereo partly drawn) [DA001, 3-O-[α-L-rhamnopyranosyl-(1→2)-α-L-arabinopyranosyl]-3,23-dihydroxy-20(29)-lupen-28-oic acid], for which the “Agonist effect, cAMP measurement” value is on record as −0.8% at EP2 receptor (10 μM) and −11% on EP4 receptor (EP4 receptor, 10 μM). The “Antagonist effect, cAMP measurement” value at EP2 receptor (10 μM) is reported as 2.2%; on EP4 receptor (EP4 receptor, 10 μM), 41%. Also, the half-maximal inhibitory concentration (IC50) at EP2 receptor (setting [2]) was 36 µM; at EP4 receptor (setting [2]), 20 µM. In experiment [1], the “amount of IL-6 in response to exogenous compound” value is “markedly decreased”. The “reduction in the amount of MOG-induced IL-6” value in experiment [1] is reported as 73%.
